Here are results for 21 compounds from US7786141B2 (Vertex Pharmaceuticals Incorporated, priority 2004, dated 2010).

One test deals with T1, M1 muscarinic receptor (Homo sapiens, UniProt P11229).
T1 construct: expressed in transfected cells; host or cells: CHO (M1-CHO)
T1 sequence (P11229 1-460): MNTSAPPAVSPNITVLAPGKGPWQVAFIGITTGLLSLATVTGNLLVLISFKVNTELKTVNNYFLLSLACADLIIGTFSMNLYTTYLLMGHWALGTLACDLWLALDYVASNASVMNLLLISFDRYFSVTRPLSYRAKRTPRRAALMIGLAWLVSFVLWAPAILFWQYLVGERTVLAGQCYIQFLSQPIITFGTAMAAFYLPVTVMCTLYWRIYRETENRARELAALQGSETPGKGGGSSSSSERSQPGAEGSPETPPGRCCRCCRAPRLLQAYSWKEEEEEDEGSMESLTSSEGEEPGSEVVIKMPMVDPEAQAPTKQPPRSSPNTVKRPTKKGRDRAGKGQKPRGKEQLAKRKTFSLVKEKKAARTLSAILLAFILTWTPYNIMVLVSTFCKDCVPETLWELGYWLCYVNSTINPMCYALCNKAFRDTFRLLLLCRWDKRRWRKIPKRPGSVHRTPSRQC
As to the kind of experiment: Functional mobilization of intracellular calcium (FLIPR) in M1-CHO cells. Format: cell-based. Particulars: Table 4; for Emax: 100% efficacy is the maximum response obtained with the Carbachol control; for M1 Activity: M1 receptor, calcium mobilization (FLIPR). Put shortly:
(§1)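 Intracellular calcium rise is measured by FLIPR fluorescence over 60 sec in CHO cells carrying human M1 or M4 receptors. Compounds are tested alone as agonists, or pre-incubated 15 min (or co-applied) ahead of carbachol at its EC80 to detect inhibition.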
A general note: Calcium assays in cells follow changes in intracellular calcium, usually with a dye or a luminescent sensor.

The target of another test is T2, M4 muscarinic receptor (Homo sapiens, UniProt P08173).
T2 construct: expressed in transfected cells; host or cells: CHO (M4-CHO)
T2 sequence (P08173 1-479): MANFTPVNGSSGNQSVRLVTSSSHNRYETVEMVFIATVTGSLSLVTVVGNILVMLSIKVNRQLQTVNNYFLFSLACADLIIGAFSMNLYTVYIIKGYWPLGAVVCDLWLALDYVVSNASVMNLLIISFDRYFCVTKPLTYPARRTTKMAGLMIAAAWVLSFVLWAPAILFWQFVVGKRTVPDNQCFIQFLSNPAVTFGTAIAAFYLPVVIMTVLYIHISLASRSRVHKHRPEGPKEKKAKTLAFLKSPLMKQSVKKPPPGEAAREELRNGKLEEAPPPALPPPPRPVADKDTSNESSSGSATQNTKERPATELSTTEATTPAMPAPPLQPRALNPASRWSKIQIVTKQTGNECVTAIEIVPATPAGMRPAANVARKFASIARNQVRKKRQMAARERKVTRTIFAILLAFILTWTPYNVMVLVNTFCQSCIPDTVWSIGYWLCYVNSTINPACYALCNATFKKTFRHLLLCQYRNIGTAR
In words: Functional mobilization of intracellular calcium (FLIPR) in M4-CHO cells. It is filed as cell-based. The note with it: Table 4; for Emax: 100% efficacy is the maximum response obtained with the Carbachol control; for M4 Activity: M4 receptor, calcium mobilization (FLIPR). Put shortly:
as §1

By Emax is commonly meant the greatest response seen or fitted, relative to the assay's reference.

Consider `CC#CCOC(=O)N1CC[C@@H](CN2CCC3(CC2)CN(C(=O)N(C)C)c2ccc(F)cc23)C1` [compound 939], for which, on M1 muscarinic receptor, the maximal effect (Emax) was 25 to 100% and the “M1 Activity” value is listed as “xxx (activity was measured to be less than 2.0 μM)”. At M4 muscarinic receptor, the Emax lay within 25 to 100% and the “M4 Activity” value is given as “xxx (activity was measured to be less than 2.0 μM)”.
Take `CCOC(=O)N1CC[C@H](CN2CCC3(CC2)CN(C(C)=O)c2cccc(C)c23)C1` [compound 940]: on M1 muscarinic receptor, the Emax was 25 to 100% and the “M1 Activity” value was “xxx (activity was measured to be less than 2.0 μM)”. Further, on M4 muscarinic receptor, the Emax is 25 to 100% and the “M4 Activity” value is given as “xxx (activity was measured to be less than 2.0 μM)”.
On to `CCOC(=O)N1CCC(N2CCC3(CC2)CN(c2cccnc2)c2ccc(F)cc23)CC1` [compound 941], for which, at M1 muscarinic receptor, the Emax was 25 to 100% and the “M1 Activity” value is reported as “xxx (activity was measured to be less than 2.0 μM)”. In addition, on M4 muscarinic receptor, the Emax was in the range of 25 to 100% and the “M4 Activity” value was “xxx (activity was measured to be less than 2.0 μM)”.
As for `CCOC(=O)N1CCC(N2CCC3(CC2)CN(c2ccc(C)nn2)c2ccc(F)cc23)CC1` [compound 942], at M1 muscarinic receptor, the maximum response (Emax) was more than 100% and the “M1 Activity” value is listed as “xxx (activity was measured to be less than 2.0 μM)”. In addition, at M4 muscarinic receptor, the Emax fell in the range of 25 to 100% and the “M4 Activity” value was “xxx (activity was measured to be less than 2.0 μM)”.
On to `CC(=O)N1CC2(CCN(C3CCN(c4nc(C)ns4)CC3)CC2)c2cc(F)ccc21` [compound 943], for which, on M1 muscarinic receptor, the Emax is 25 to 100% and the “M1 Activity” value is reported as “xxx (activity was measured to be less than 2.0 μM)”. At M4 muscarinic receptor, the Emax lay in the range of 25 to 100% and the “M4 Activity” value is given as “xxx (activity was measured to be less than 2.0 μM)”.
Turning to `CCNC(=O)N1CC2(CCN(C3CCN(C(=O)OCC)CC3)CC2)c2ccccc21` [compound 944], at M1 muscarinic receptor, the Emax was in the range of 25 to 100% and the “M1 Activity” value is “xxx (activity was measured to be less than 2.0 μM)”. At M4 muscarinic receptor, the maximal response (Emax) lay in the range of 25 to 100% and the “M4 Activity” value was “xxx (activity was measured to be less than 2.0 μM)”.
With `O=C1CCCN1[C@H]1CCC2(CCN(C3CCCCCC3)CC2)c2ccccc21` [compound 945], at M1 muscarinic receptor, the maximum response (Emax) fell in the range of 25 to 100% and the “M1 Activity” value was “xxx (activity was measured to be less than 2.0 μM)”. In addition, on M4 muscarinic receptor, the Emax was in the range of 25 to 100% and the “M4 Activity” value is “xxx (activity was measured to be less than 2.0 μM)”.
As to `O=C(N[C@H]1CC2(CCN(CC3CCCCC3)CC2)c2ccccc21)N1CCCC1` [compound 946], at M1 muscarinic receptor, the Emax was less than 25% and the “M1 Activity” value was “x (activity was measured to be greater than 5.0 μM)”. At M4 muscarinic receptor, the Emax was less than 25% and the “M4 Activity” value is recorded as “xxx (activity was measured to be less than 2.0 μM)”.
With `C#CCOC(=O)N1CCC(N2CCC3(CC2)CN(C(C)=O)c2ccccc23)CC1` [compound 947], at M1 muscarinic receptor, the maximal effect (Emax) is more than 100% and the “M1 Activity” value is recorded as “xxx (activity was measured to be less than 2.0 μM)”. Also, at M4 muscarinic receptor, the Emax was 25 to 100% and the “M4 Activity” value is given as “xxx (activity was measured to be less than 2.0 μM)”.
With `CCOC(=O)N1CCC(CN2CCC3(CC2)CN(C(C)=O)c2ccc(S(C)(=O)=O)cc23)CC1` [compound 948], on M1 muscarinic receptor, the Emax was less than 25% and the “M1 Activity” value is “x (activity was measured to be greater than 5.0 μM)”. Besides, on M4 muscarinic receptor, the Emax is less than 25% and the “M4 Activity” value is listed as “x (activity was measured to be greater than 5.0 μM)”.
Consider `CCOC(=O)N1C2CCC1CC(N1CCC3(CC1)CC(=O)c1cc(C)ccc13)C2` (stereo not drawn) [compound 949], for which, at M1 muscarinic receptor, the Emax was 25 to 100% and the “M1 Activity” value was “xxx (activity was measured to be less than 2.0 μM)”. For the same compound, on M4 muscarinic receptor, the Emax was in the range of 25 to 100% and the “M4 Activity” value was “xxx (activity was measured to be less than 2.0 μM)”.
Turning to `CCOC(=O)N1CCC(N2CCC3(CC2)CN(C(C)=O)c2ccc(-c4ccc(F)cc4)cc23)CC1` [compound 950], on M1 muscarinic receptor, the Emax lay in the range of 25 to 100%; the “M1 Activity” value is “xx (activity was measured to be between 2.0 μM and 5.0 μM)”. Moreover, on M4 muscarinic receptor, the Emax is 25 to 100%; the “M4 Activity” value is “xx (activity was measured to be between 2.0 μM and 5.0 μM)”.
As to `CCOC(=O)N1CCC(N2CCC3(CC2)CN(C2CCC(=O)CC2)c2ccc(F)cc23)CC1` [compound 951], at M1 muscarinic receptor, the Emax lay in the range of 25 to 100% and the “M1 Activity” value is on record as “xxx (activity was measured to be less than 2.0 μM)”. Further, on M4 muscarinic receptor, the Emax is 25 to 100% and the “M4 Activity” value is listed as “xxx (activity was measured to be less than 2.0 μM)”.
Regarding `CCOC(=O)N1CCC(N2CCC3(CC2)CNc2ccc(F)cc23)CC1` [compound 952], at M1 muscarinic receptor, the Emax lay within 25 to 100% and the “M1 Activity” value is given as “xxx (activity was measured to be less than 2.0 μM)”. For the same compound, on M4 muscarinic receptor, the Emax was 25 to 100% and the “M4 Activity” value is “xxx (activity was measured to be less than 2.0 μM)”.
For `CC(=O)N1CC2(CCN(C3CCN(c4cnc(C)c(C)n4)CC3)CC2)c2ccccc21` [compound 953], at M1 muscarinic receptor, the Emax lay within 25 to 100%; the “M1 Activity” value is “xx (activity was measured to be between 2.0 μM and 5.0 μM)”. On M4 muscarinic receptor, the Emax lay in the range of 25 to 100% and the “M4 Activity” value was “xxx (activity was measured to be less than 2.0 μM)”.
As to `COCCOC(=O)N1CCCC(N2CCC3(CC2)CN(C(=O)N(C)C)c2ccc(F)cc23)CC1` (stereo not drawn) [compound 954], on M1 muscarinic receptor, the maximal response (Emax) was in the range of 25 to 100% and the “M1 Activity” value was “xxx (activity was measured to be less than 2.0 μM)”. Besides, at M4 muscarinic receptor, the Emax is 25 to 100% and the “M4 Activity” value is on record as “xxx (activity was measured to be less than 2.0 μM)”.
Regarding `O=C(N[C@H]1CC2(CCN(CC3CCCCC3)CC2)c2ccccc21)C1CC1` [compound 955], on M1 muscarinic receptor, the Emax is 25 to 100% and the “M1 Activity” value is reported as “xxx (activity was measured to be less than 2.0 μM)”. In addition, at M4 muscarinic receptor, the Emax was 25 to 100% and the “M4 Activity” value is “xxx (activity was measured to be less than 2.0 μM)”.
With `CCOC(=O)N1CCC(N2CCC3(CC2)CN(C(C)=O)c2c(-c4ccsc4)cccc23)CC1` [compound 956], on M1 muscarinic receptor, the Emax lay in the range of 25 to 100% and the “M1 Activity” value is “x (activity was measured to be greater than 5.0 μM)”. Besides, on M4 muscarinic receptor, the Emax was less than 25% and the “M4 Activity” value was “x (activity was measured to be greater than 5.0 μM)”.
For the compound `CN(C)C(=O)N1CC2(CCN(C3CCN(c4nccs4)CC3)CC2)c2cc(F)ccc21` [compound 957], at M1 muscarinic receptor, the Emax was in the range of 25 to 100% and the “M1 Activity” value was “xxx (activity was measured to be less than 2.0 μM)”. In addition, on M4 muscarinic receptor, the Emax lay in the range of 25 to 100% and the “M4 Activity” value was “xxx (activity was measured to be less than 2.0 μM)”.
For the compound `COCCN1CC2(CCN(C3CCCCCC3)CC2)c2cc(F)ccc21` [compound 958], at M1 muscarinic receptor, the Emax was 25 to 100% and the “M1 Activity” value is “xxx (activity was measured to be less than 2.0 μM)”. Also, at M4 muscarinic receptor, the maximum response (Emax) fell in the range of 25 to 100% and the “M4 Activity” value is given as “xxx (activity was measured to be less than 2.0 μM)”.
As for `CCOC(=O)N1CCC(N2CCC3(CC2)CN(C(=O)N2CCCC2)c2ccccc23)CC1` [compound 959], on M1 muscarinic receptor, the maximum response (Emax) fell in the range of 25 to 100%; the “M1 Activity” value is “xx (activity was measured to be between 2.0 μM and 5.0 μM)”. In addition, on M4 muscarinic receptor, the Emax fell in the range of 25 to 100% and the “M4 Activity” value is given as “xxx (activity was measured to be less than 2.0 μM)”.
